# Laboratory results reported in article PMC3985299, “Single Ascending Dose Safety and Pharmacokinetics of CDRI-97/78: First-in-Human Study of a Novel Antimalarial Drug” (Malaria Research and Treatment, 2014).
# Entries after “also recorded” stand apart in the source; their conditions may differ.
# Assays:
# healthy human volunteers = assay: Single ascending dose, placebo-controlled phase I study: adverse events, tolerability, MTD; type: in vivo; details: for Severity grade: CTCAE v4.0
# Method: This was a single ascending dose, placebo-controlled, randomized, double blind trial. Randomization was carried out by computer generated random number sequence. Randomization was carried out for the drug and the placebo in a 3 : 1 ratio for each dose level. The drugs were dispensed in sealed bottles with the randomization code written on them. Randomization codes were provided in sealed opaque envelopes with the protocol specification that the codes may be opened by the investigator only in case of a serious or severe adverse event.
# This was used to obtain a dose of 96 mg for a 60 kg person. […] The following dose levels were evaluated: 80, 160, 320, 400, 500, 600, and 700 mg. The starting dose was calculated by allometric scaling from animals. At each dose level, six volunteers received CDRI 97/78 and two received placebo except at 700 mg where only two volunteers were given this dose. At each dose level, volunteers were assessed before proceeding to the next dose.
# The decision to stop the dose escalation was based on the appearance of the dose limiting toxicity (DLT) which was defined as the dose at which any of the following appeared: severe nausea, vomiting, heartburn, headache, remarkable change in vital parameters such as blood pressure, heart rate, respiratory rate or oxygen saturation of blood, changes in QT interval, or any event that in the opinion of the investigators required stopping of the trial.
# In case this was not achieved, it was planned not to dose volunteers beyond 700 mg.
# The volunteers after giving informed consent were screened. The screening process was done latest within 1 month of admission for dosing. The volunteers who fulfilled the inclusion/exclusion criteria were admitted in the CPU the night before drug administration. Standardized dinner was served at 9 pm the night prior to dosing. On day 0, baseline blood sample for biochemical and haematological examination and stool and urine samples for routine and microscopy were taken. They received the study drug, according to the randomization sequence, under supervision. The empty packaging was returned to the container. The volunteers received drug as per randomization. Breakfast was given half an hour after drug administration. Subsequently, standardized lunch and dinner were served to the volunteers.
# The subjects were attached to a cardiac monitor and vital HR, BP, ECG, oxygen saturation, and RR were recorded. Corrected QT interval using Fridericia's formula was calculated. […] Unscheduled monitoring was undertaken whenever it felt necessary. […] At the end of the 7th day, they were said to have completed the study. […] The study was monitored by a Data Safety Monitoring Board.
# P. cynomolgi = tested on: P. cynomolgi; parameters: method as in printed; details: P. cynomolgi in rhesus monkeys; background, ref not given; cited from earlier work
# [1] = tested on: chloroquine resistant P. falciparum; parameters: method as in printed; details: chloroquine resistant P. falciparum in vitro; background, ref not given; cited from earlier work
# [2] = tested on: multidrug resistant P. yoelii; parameters: method as in printed; details: multidrug resistant P. yoelii in mice; background, ref not given; cited from earlier work
# [3] = AE Heaviness of head, 80 mg group
# [4] = AE Visual disturbances, 320 mg group
# [5] = single oral dose 80-700 mg, healthy male volunteers
# [6] = volunteers given 500 mg, 600 mg (and placebo)
compound,measurement,setting,value
"C=C(c1ccc(OC(C)(C)COC(=O)CCC(=O)O)cc1)C1COC2(OO1)C1CC3CC(C1)CC2C3 (stereo not drawn) [CDRI 97/78, Mono[2methyl2[3(1spiro[tricycle[3.3.1.13,7]decane2,3′-[1,2,4]trioxan] 6′-ylethenyl)phenoxy]propyl] ester]",No. of events,"healthy human volunteers; 80 mg, Heaviness of head",1
same,Type of adverse events,healthy human volunteers; 160 mg,None
same,No. of events,"healthy human volunteers; 320 mg, Visual disturbance",1
same,No. of events,"healthy human volunteers; 400 mg, Bradycardia",1
same,No. of events,"healthy human volunteers; 400 mg, Drowsiness",1
same,No. of events,"healthy human volunteers; 400 mg, Itching",1
same,No. of events,"healthy human volunteers; 500 mg, Nausea",1
same,No. of events,"healthy human volunteers; 500 mg, Sedation",1
same,No. of events,"healthy human volunteers; 600 and 700 mg, Sedation",1
same,Causality assessment,"healthy human volunteers; AE Bradycardia, 400 mg group",Possible (possible (>5% but ≤50% chance of being drug related)
same,Duration of AE,"healthy human volunteers; AE Bradycardia, 400 mg group",60 min
same,Reversal complete (yes or no),"healthy human volunteers; AE Bradycardia, 400 mg group",Yes
same,Spontaneous reversal (yes or no),"healthy human volunteers; AE Bradycardia, 400 mg group",Yes
same,Time (hrs) of onset after drug administration,"healthy human volunteers; AE Bradycardia, 400 mg group",1 h
same,Treatment given,"healthy human volunteers; AE Bradycardia, 400 mg group",None
same,Severity grade,"healthy human volunteers; AE Bradycardia, 400 mg group",1
same,Causality assessment,"healthy human volunteers; AE Drowsiness, 400 mg group",Possible (possible (>5% but ≤50% chance of being drug related)
same,Duration of AE,"healthy human volunteers; AE Drowsiness, 400 mg group",60 min
same,Reversal complete (yes or no),"healthy human volunteers; AE Drowsiness, 400 mg group",Yes
same,Spontaneous reversal (yes or no),"healthy human volunteers; AE Drowsiness, 400 mg group",Yes
same,Time (hrs) of onset after drug administration,"healthy human volunteers; AE Drowsiness, 400 mg group",2 h
same,Treatment given,"healthy human volunteers; AE Drowsiness, 400 mg group",None
same,Severity grade,"healthy human volunteers; AE Drowsiness, 400 mg group",1
same,Causality assessment,healthy human volunteers; [3],Possible (possible (>5% but ≤50% chance of being drug related)
same,Duration of AE,healthy human volunteers; [3],15 min
same,Reversal complete (yes or no),healthy human volunteers; [3],Yes
same,Spontaneous reversal (yes or no),healthy human volunteers; [3],Yes
same,Time (hrs) of onset after drug administration,healthy human volunteers; [3],0.25 h
same,Treatment given,healthy human volunteers; [3],None
same,Severity grade,healthy human volunteers; [3],1
same,Causality assessment,"healthy human volunteers; AE Itching, 400 mg group",Possible (possible (>5% but ≤50% chance of being drug related)
same,Duration of AE,"healthy human volunteers; AE Itching, 400 mg group",8 min
same,Reversal complete (yes or no),"healthy human volunteers; AE Itching, 400 mg group",Yes
same,Spontaneous reversal (yes or no),"healthy human volunteers; AE Itching, 400 mg group",Yes
same,Time (hrs) of onset after drug administration,"healthy human volunteers; AE Itching, 400 mg group",24 h
same,Treatment given,"healthy human volunteers; AE Itching, 400 mg group",None
same,Severity grade,"healthy human volunteers; AE Itching, 400 mg group",1
same,Causality assessment,"healthy human volunteers; AE Nausea, 500 mg group",Possible (possible (>5% but ≤50% chance of being drug related)
same,Duration of AE,"healthy human volunteers; AE Nausea, 500 mg group",20 min
same,Reversal complete (yes or no),"healthy human volunteers; AE Nausea, 500 mg group",Yes
same,Spontaneous reversal (yes or no),"healthy human volunteers; AE Nausea, 500 mg group",Yes
same,Time (hrs) of onset after drug administration,"healthy human volunteers; AE Nausea, 500 mg group",0.25 h
same,Treatment given,"healthy human volunteers; AE Nausea, 500 mg group",None
same,Severity grade,"healthy human volunteers; AE Nausea, 500 mg group",1
same,Causality assessment,"healthy human volunteers; AE Sedation, 500 mg group",Possible (possible (>5% but ≤50% chance of being drug related)
same,Duration of AE,"healthy human volunteers; AE Sedation, 500 mg group",120 min
same,Reversal complete (yes or no),"healthy human volunteers; AE Sedation, 500 mg group",Yes
same,Spontaneous reversal (yes or no),"healthy human volunteers; AE Sedation, 500 mg group",Yes
same,Time (hrs) of onset after drug administration,"healthy human volunteers; AE Sedation, 500 mg group",2 h
same,Treatment given,"healthy human volunteers; AE Sedation, 500 mg group",None
same,Severity grade,"healthy human volunteers; AE Sedation, 500 mg group",1-2
same,Causality assessment,"healthy human volunteers; AE Sedation, 600 mg group",Possible (possible (>5% but ≤50% chance of being drug related)
same,Duration of AE,"healthy human volunteers; AE Sedation, 600 mg group",60 min
same,Reversal complete (yes or no),"healthy human volunteers; AE Sedation, 600 mg group",Yes
same,Spontaneous reversal (yes or no),"healthy human volunteers; AE Sedation, 600 mg group",Yes
same,Time (hrs) of onset after drug administration,"healthy human volunteers; AE Sedation, 600 mg group",2 h
same,Treatment given,"healthy human volunteers; AE Sedation, 600 mg group",None
same,Severity grade,"healthy human volunteers; AE Sedation, 600 mg group",1-2
same,Causality assessment,healthy human volunteers; [4],Remote (remote (<5% chance of being drug related))
same,Duration of AE,healthy human volunteers; [4],2 to 3 min
same,Reversal complete (yes or no),healthy human volunteers; [4],Yes
same,Spontaneous reversal (yes or no),healthy human volunteers; [4],Yes
same,Time (hrs) of onset after drug administration,healthy human volunteers; [4],36 h
same,Treatment given,healthy human volunteers; [4],None
same,Severity grade,healthy human volunteers; [4],1
same,Heart rate during adverse event bradycardia,healthy human volunteers; adverse event bradycardia,56-57 bpm
same,"Incidence of adverse events, drug vs placebo groups","healthy human volunteers; all dose levels, P = 0.43",no significant difference
same,Serious adverse events,healthy human volunteers; single oral dose 80-700 mg,No serious adverse events were reported
same,MTD (maximum tolerated dose),healthy human volunteers; [5],not reached; also recorded: could not be determined
same,Tolerability / safety,healthy human volunteers; [5],well tolerated; also recorded: safe and tolerable
same,Sedation: duration,healthy human volunteers; [6],1 to 2 h
same,Sedation: time of onset after drug administration,healthy human volunteers; [6],about 2 hours
same,Antimalarial activity,P. cynomolgi,powerful antimalarial activity
same,Antimalarial activity,[1],powerful antimalarial activity
same,Antimalarial activity,[2],powerful antimalarial activity
